# Measured values taken from US7034027B2, “Fused heterocyclic derivatives as phosphodiesterase inhibitors” (Lilly Icos LLC, priority 2000, dated 2006).
# Legend:
# human recombinant PDE5 = biological target: T1, human recombinant PDE5 (Homo sapiens, UniProt O76074); experiment: Inhibitory effect on cGMP-PDE (PDE5 IC50, one-step assay); format: biochemical; conditions: in vitro
# T1 construct: host or cells: Saccharomyces cerevisiae BJ2-54 (exemplary method)
# Procedure: The compounds of structural formula (I) were tested for an ability to inhibit PDE5. The ability of a compound to inhibit PDE5 activity is related to the IC50 value for the compound, i.e., the concentration of inhibitor required for 50% inhibition of enzyme activity. The IC50 value for compounds of structural formula (I) were determined using recombinant human PDE5.
# cGMP-PDE activity of compounds of the present invention was measured using a one-step assay adapted from Wells et al., Biochim. Biophys. Acta, 384, 430 (1975). The reaction medium contained 50 mM Tris-HCl, pH 7.5, 5 mM magnesium acetate, 250 μg/ml 5′-Nucleotidase, 1 mM EGTA, and 0.15 μM 8-[H^3]-cGMP. Unless otherwise indicated, the enzyme used was a human recombinant PDE5 (ICOS Corp., Bothell, Wash.).
# Compounds of the invention were dissolved in DMSO finally present at 2% in the assay.
SMILES,melting point [°C],IC50 (human recombinant PDE5) [nM]
"CN1C(=O)[C@H]2Cc3c([nH]c4ccccc34)C(c3ccc4c(c3)OCO4)N2C(=O)C1(C)C (mixture of isomers) [Example 1, (12a,R)-6-Benzo[1,3]dioxol-5-yl,2,3,3-trimethyl-2,3,6,7,12,12a-hexahydropyrazino[1′,2′:1,6]-pyrido[3,4-b]indole-1,4-dione]",225 to 235,161
"NC(=O)CC[C@@H]1NC(=O)[C@H]2Cc3c([nH]c4ccccc34)[C@@H](c3ccc4c(c3)OCO4)N2C1=O [Example 2, 3-((3S,6R,12aR)-6-Benzo[1,3]dioxol-5-yl-1,4-dioxo-1,2,3,4,6,7,12,12a-octahydropyrazino[1′,2′:1,6]-pyrido[3,4-b]indo-3-yl)propionamide]",78 to 82,2.2
"O=C1NNC(=O)N2[C@H](c3ccc4c(c3)OCO4)c3[nH]c4ccccc4c3C[C@H]12 [Example 3, (5aR,10R)-10-Benzo[1,3]dioxol-5-yl-5,5a,7,8,10,11-hexahydro-7,8,9a,11-tetraazabenzo[b]fluorene-6,9-dione]",188 to 194,113
"CN1CCC(=O)N2[C@H](c3ccc4c(c3)OCO4)c3[nH]c4ccccc4c3C[C@H]2C1=O [Example 4, (5aS,11R)-11-Benzo[1,3]dioxol-5-yl-7-methyl-5,5a,8,9,11,12-hexahydro-7H-7,10a,12-triaza-cyclohepta[b]fluorene-6,10-dione]",179 to 182,593
"O=C1N[C@H](CO)C(=O)N2[C@H](c3ccc4c(c3)OCO4)c3[nH]c4ccccc4c3C[C@H]12 [Example 8, (3R,6R,12aR)-6-Benzo[1,3]dioxo-5-yl-3-hydroxymethyl-2,3,6,7,12,12a-hexahydropyrazino[1′,2′:1,;6]pyrido[3,4-b]indole-1,4-dione]",194 to 200,28

# The next compounds have a lower IC50 (human recombinant PDE5) than those just listed; values first:
melting point [°C],IC50 (human recombinant PDE5) [nM],SMILES
222 to 227,0.6,CC(C)(C)OC(=O)CC[C@@H]1NC(=O)[C@H]2Cc3c([nH]c4ccccc34)[C@@H](c3ccc4c(c3)OCO4)N2C1=O [Example 5]
–,1,"O=C(O)CC[C@@H]1NC(=O)[C@H]2Cc3c([nH]c4ccccc34)[C@@H](c3ccc4c(c3)OCO4)N2C1=O [Example 6, 3-((3S,6R,12aR)-6-Benzo[1,3]dioxol-5-yl-1,4-dioxo-1,2,3,4,6,7,12,12a-octahydropyrazino[1′,2′:1,6]pyrido[3,4-b]indole-3-yl)propionic acid]"
–,0.2,"CC(C)OC(=O)CC[C@@H]1NC(=O)[C@H]2Cc3c([nH]c4ccccc34)[C@@H](c3ccc4c(c3)OCO4)N2C1=O [Example 7, 3-((3S,6R,12aR)-6-Benzo[1,3]dioxol-5-yl-1,4-dioxo-1,2,3,4,6,7,12,12a-octahydropyrazino[1′,2′:1,6]pyrido[3,4-b]indol-3-yl)-propionic acid isopropyl ester]"
